{"source": "patent US6642209B1", "about": "“Use of adenosine compounds to alleviate or normalize pathologically hyperexcited sensory nerve function in a human patient” (priority 1990, dated 2003)", "key": {"dogs": {"tested_on": "dogs", "assay": "Oxygen transport and regional tissue oxygenation during graded induced hypotension", "format": "in vivo, dog", "conditions": "for O2 supply/demand ratio: graded hypotension to MAP 30 mmHg", "procedure": "Arterial and pulmonary artery (Swan-Ganz) catheters were placed via a femoral cut down. […] Another PO2 sensor probe was placed on the surface of the liver, kidney, subcutaneous, and muscle of the chest wall through a small skin incision. Referring to FIG. 6, the dogs were divided into three groups: (a) hemorrhagic (n=7), (b) isoflurane (n=8), and (c) ATP (n=8). […] The following were measured and/or calculated: […] The data were analyzed using ANOVA with the Bonferroni t-test and unpaired t-test where appropriate, accepting p<0.05 as significant."}, "rabbits [1]": {"tested_on": "rabbits", "assay": "Hypothermia induced under adenosine or ATP infusion", "format": "in vivo, rabbit", "procedure": "The hypothermic and rewarming effects of an adenosine compound are tested in experimental animals prepared similarly as in the rabbit model described herein to test for anesthetic effects, except that the body temperature is allowed to fall. In animal studies (rabbit) where the room has a temperature of approximately 22° C., the body temperature will fall from a norm of about 39° C. to about 32° C. in about three hours. If the animal is cooled further with ice bags, a temperature of approximately 22° C. can be achieved in three hours without cardiovascular decompensation. Rewarming is done with the aid of a thermal blanket and heat lamp. The effective dosages of adenosine compound ranged from about 100 μg/kg/min to about 5000 μg/kg/min.\nReferring to FIG. 7, the body temperature versus time plots are shown for eight different experiments. In Run 1, adenosine 500 μg/kg/min was administered intravenously to rabbits for six hours. The administration was then stopped and the body temperatures were allowed to recover.\nIn Run 2, ATP 500 μg/kg/min was administered intravenously for six hours. At that time, the body temperature was 31.5° C. The animal's body temperature was allowed to recover by applying external heating for four hours when (at the arrow) the external heating was removed and the temperature was allowed to fall. The body temperature again fell.\nIn Run 3, ATP was administered intravenously. The body temperature stabilized after ten hours at 32.5° C.\nIn Runs 4, 5, and 6, adenosine was administered to rabbits until the body temperature reached a constant value. In Run 4, after five hours, the body temperature stabilized at 33° C. In Run 6, after six hours, the temperature stabilized at 31.5° C.\nIn Run 7, five unmedicated New Zealand rabbits were anesthetized with halothane in O2 using a face mask. The ear vein was cannulated with a 22 gauge plastic catheter for drug infusion. 500 μg/kg/min to 5500 μ/kg/min adenosine was administered IV. Body temperature was monitored through a rectal thermometer. The body temperature started at approximately 38.5° C. After the application of ice bags, the temperature dropped approximately 5.5° C./hr until a minimum body temperature of approximately 22° C. was achieved.\nThe ice bags were removed and external heating applied. The body temperature of all rabbits returned to normal, and the rabbits were apparently normal.\nIn a comparison, in Run 8, six rabbits were anesthetized with isofluane and external cooling applied."}, "experimental animals [2]": {"tested_on": "experimental animals", "assay": "Lethal to effective dose margin", "format": "in vivo", "procedure": "In contrast to other conventional anesthetics, the adenosine compounds are useful over a wide dose range. For example, adenosine is active over a as range of between 1 to 5000 μg/kg/min. In contrast, conventional anesthetic agents, such as isoflurane, have narrow effective ranges. The fatal to effective anesthetic ratio of isoflurane is 3.02±0.13. Other reports indicate that isoflurane has about 1.88 times the safety range of halothane. […] Of course, the anesthesiologist will err on the side of administering too little and, thereby, runs the risk of underdosing the patient. This need for caution may result in an inadequately anesthetized (subanesthetized) patient during the surgical procedure.\nOne great advantage observed with adenosine compounds is the wide margin for error on effective therapeutic range. This advantage is exemplified by adenosine where the lethal dose is about 100 times the dose required for analgesia, and ATP where the lethal dose is greater than 150 times the amount required for analgesia."}, "surgical patients [3]": {"tested_on": "surgical patients", "assay": "ATP infusion to attenuate surgical stress response in patients"}, "surgical patients [4]": {"tested_on": "surgical patients", "assay": "ATP anesthesia replacing enflurane or N2O in patients undergoing oral surgery"}, "rabbits [5]": {"tested_on": "rabbits", "assay": "Replacement of enflurane anesthesia by ATP infusion, electrical tail stimulation and tail clamp"}, "[6]": {"assay": "Anesthesia score chart comparing anesthetic agents for the four components of anesthesia (Table 1)", "parameters": "key: 0 no effect; 1 minimal; 2 mostly; 3 maximal"}, "experimental animals [7]": {"tested_on": "experimental animals", "conditions": "cited from earlier work"}, "[8]": {"conditions": "GROUP A spontaneously breathing, ATP infusion time 60 min, n = 18, mean"}, "[9]": {"conditions": "GROUP A spontaneously breathing, ATP infusion time 120 min, n = 16, mean"}, "[10]": {"conditions": "GROUP A spontaneously breathing, ATP infusion time 180 min, n = 3, mean"}, "[11]": {"conditions": "GROUP A spontaneously breathing, ATP infusion time 240 min, n = 1"}, "[12]": {"conditions": "GROUP B mechanically breathing, ATP infusion time 60 min, n = 14, mean"}, "[13]": {"conditions": "GROUP B mechanically breathing, ATP infusion time 120 min, n = 10, mean"}, "[14]": {"conditions": "GROUP B mechanically breathing, ATP infusion time 180 min, n = 5, mean"}, "[15]": {"conditions": "GROUP B mechanically breathing, ATP infusion time 240 min, n = 4, mean"}, "[16]": {"conditions": "N2O 60%, ENF 2.0-[…], ATP 362 ± 164 μg/kg/min, Mean ± SD, n = 6"}}, "note": "Entries after “also recorded” stand apart in the source; their conditions may differ."}
{"smiles": "Nc1ncnc2c1ncn2[C@@H]1O[C@H](COP(=O)(O)OP(=O)(O)OP(=O)(O)O)[C@@H](O)[C@H]1O", "note": "[ATP, adenosine triphosphate]", "values": [{"measurement": "O2 supply/demand ratio", "setting": "dogs", "result": "positive O2 supply/demand ratio in all stages of hypotension"}, {"measurement": "body temperature", "setting": "rabbits [1]; Run 2, 500 μg/kg/min intravenously for six hours", "result": 31.5, "unit": "°C"}, {"measurement": "body temperature at which it stabilized", "setting": "rabbits [1]; Run 3, intravenously, after ten hours", "result": 32.5, "unit": "°C"}, {"measurement": "deaths on overdose", "setting": "experimental animals [2]; enormous overdoses", "result": "no experimental animals died"}, {"measurement": "lethal dose relative to the dose required for analgesia", "setting": "experimental animals [2]; in vivo", "result": "greater than 150 times"}, {"measurement": "BE", "setting": "surgical patients [3]; [8]", "result": "−3.3"}, {"measurement": "Hb", "setting": "surgical patients [3]; [8]", "result": 12.6}, {"measurement": "PCO2", "setting": "surgical patients [3]; [8]", "result": 44.1}, {"measurement": "PO2", "setting": "surgical patients [3]; [8]", "result": 140.9}, {"measurement": "pH (arterial blood gas)", "setting": "surgical patients [3]; [8]", "result": 7.33}, {"measurement": "BE", "setting": "surgical patients [3]; [9]", "result": "−3.2"}, {"measurement": "Hb", "setting": "surgical patients [3]; [9]", "result": 12.8}, {"measurement": "PCO2", "setting": "surgical patients [3]; [9]", "result": 41.9}, {"measurement": "PO2", "setting": "surgical patients [3]; [9]", "result": 137.9}, {"measurement": "pH (arterial blood gas)", "setting": "surgical patients [3]; [9]", "result": 7.34}, {"measurement": "BE", "setting": "surgical patients [3]; [10]", "result": "−3.0"}, {"measurement": "Hb", "setting": "surgical patients [3]; [10]", "result": 11.9}, {"measurement": "PCO2", "setting": "surgical patients [3]; [10]", "result": 39.9}, {"measurement": "PO2", "setting": "surgical patients [3]; [10]", "result": 165.5}, {"measurement": "pH (arterial blood gas)", "setting": "surgical patients [3]; [10]", "result": 7.36}, {"measurement": "BE", "setting": "surgical patients [3]; [11]", "result": "−4.1"}, {"measurement": "Hb", "setting": "surgical patients [3]; [11]", "result": 10.7}, {"measurement": "PCO2", "setting": "surgical patients [3]; [11]", "result": 31.0}, {"measurement": "PO2", "setting": "surgical patients [3]; [11]", "result": 115.1}, {"measurement": "pH (arterial blood gas)", "setting": "surgical patients [3]; [11]", "result": 7.39}, {"measurement": "BE", "setting": "surgical patients [3]; [12]", "result": "−4.2"}, {"measurement": "Hb", "setting": "surgical patients [3]; [12]", "result": 11.7}, {"measurement": "PCO2", "setting": "surgical patients [3]; [12]", "result": 40.2}, {"measurement": "PO2", "setting": "surgical patients [3]; [12]", "result": 140.3}, {"measurement": "pH (arterial blood gas)", "setting": "surgical patients [3]; [12]", "result": 7.34}, {"measurement": "BE", "setting": "surgical patients [3]; [13]", "result": "−4.8"}, {"measurement": "Hb", "setting": "surgical patients [3]; [13]", "result": 11.2}, {"measurement": "PCO2", "setting": "surgical patients [3]; [13]", "result": 40.1}, {"measurement": "PO2", "setting": "surgical patients [3]; [13]", "result": 142.6}, {"measurement": "pH (arterial blood gas)", "setting": "surgical patients [3]; [13]", "result": 7.33}, {"measurement": "BE", "setting": "surgical patients [3]; [14]", "result": "−5.2"}, {"measurement": "Hb", "setting": "surgical patients [3]; [14]", "result": 11.8}, {"measurement": "PCO2", "setting": "surgical patients [3]; [14]", "result": 41.6}, {"measurement": "PO2", "setting": "surgical patients [3]; [14]", "result": 130.4}, {"measurement": "pH (arterial blood gas)", "setting": "surgical patients [3]; [14]", "result": 7.32}, {"measurement": "BE", "setting": "surgical patients [3]; [15]", "result": "−5.4"}, {"measurement": "Hb", "setting": "surgical patients [3]; [15]", "result": 11.7}, {"measurement": "PCO2", "setting": "surgical patients [3]; [15]", "result": 45.4}, {"measurement": "PO2", "setting": "surgical patients [3]; [15]", "result": 130.1}, {"measurement": "pH (arterial blood gas)", "setting": "surgical patients [3]; [15]", "result": 7.288}, {"measurement": "Intra-operative urine output", "setting": "surgical patients [3]; Group A, spontaneous ventilation, n=20", "result": "58.7 (±43.3) ml/hr"}, {"measurement": "Intra-operative urine output", "setting": "surgical patients [3]; Group B, mechanically ventilated, n=14", "result": "71.8 (±44.6) ml/hr"}, {"measurement": "emergence from anesthesia", "setting": "surgical patients [3]; after discontinuation of N2O and ATP", "result": "all patients emerged from anesthesia smoothly"}, {"measurement": "cardiovascular and neurobehavioral responses to surgery", "setting": "surgical patients [3]; continuous infusion in combination with N2O", "result": "effectively inhibited"}, {"measurement": "ENF requirement", "setting": "surgical patients [3]; continuous infusion of ATP", "result": "markedly reduced"}, {"measurement": "hemodynamic and respiratory functions", "setting": "surgical patients [3]; during ATP infusion", "result": "well maintained"}, {"measurement": "ATP infusion dose titrated until ENF or N2O was completely replaced", "setting": "surgical patients [4]; 14 patients, Mean ± SD", "result": "108 ± 21", "unit": "µg/kg/min"}, {"measurement": "Urine output", "setting": "surgical patients [4]; 14 patients, Mean ± SD", "result": "111 ± 16", "unit": "mL/h"}, {"measurement": "ventilatory or blood gas deterioration", "setting": "surgical patients [4]; during ATP infusion in spontaneously breathing patients", "result": "No ventilatory or blood gas deterioration was seen"}, {"measurement": "purposeful escape movements on electrical tail stimulation", "setting": "rabbits [5]; FIG. 4", "result": "purposeful escape movements decreased"}, {"measurement": "analgesic effect after the infusion had stopped", "setting": "rabbits [5]; IV ATP", "result": "selective analgesic effect persisted"}, {"measurement": "DBP", "setting": "rabbits [5]; [16]", "result": "83 ± 16", "unit": "mmHg"}, {"measurement": "HR", "setting": "rabbits [5]; [16]", "result": "278 ± 26", "unit": "bpm"}, {"measurement": "PaCO2", "setting": "rabbits [5]; [16]", "result": "22 ± 3", "unit": "mmHg"}, {"measurement": "PaO2", "setting": "rabbits [5]; [16]", "result": "145 ± 24", "unit": "mmHg"}, {"measurement": "RR (Respiratory Rate)", "setting": "rabbits [5]; [16]", "result": "81 ± 14", "unit": "bpm"}, {"measurement": "SBP", "setting": "rabbits [5]; [16]", "result": "112 ± 20", "unit": "mmHg"}]}
{"smiles": "FC(F)OC(Cl)C(F)(F)F", "note": "(stereo not shown) [isoflurane]", "values": [{"measurement": "Antinociception (analgesia, less pain perception)", "setting": "[6]; Anesthesia Score 0 to 3", "result": 1}, {"measurement": "Inhibition of Stress (autonomic responses: blood pressure, heart rate; endocrine and metabolic responses)", "setting": "[6]; Anesthesia Score 0 to 3", "result": 1}, {"measurement": "Muscle Relaxation", "setting": "[6]; Anesthesia Score 0 to 3", "result": 1}, {"measurement": "Sleep (unconsciousness, amnesia, sedation)", "setting": "[6]; Anesthesia Score 0 to 3", "result": 3}, {"measurement": "TOTALS of Anesthesia Score", "setting": "[6]; sum of the four components", "result": 6}, {"measurement": "O2 supply/demand ratio", "setting": "dogs", "result": "reduced O2 supply/demand ratio"}, {"measurement": "O2 delivery (DO2)", "setting": "dogs; graded hypotension, higher dosage", "result": "seriously depressed DO2"}, {"measurement": "survival during body temperature lowering", "setting": "rabbits [1]; external cooling, Run 7 (five rabbits), Run 8 (six rabbits)", "result": "one rabbit expired due to ventricular fibrillation; also recorded: another expired due to pulmonary edema"}, {"measurement": "shivering during body temperature lowering", "setting": "rabbits [1]; external cooling, Run 7, Run 8", "result": "shiver violently"}, {"measurement": "fatal to effective anesthetic ratio", "setting": "experimental animals [7]; in vivo", "result": "3.02±0.13"}, {"measurement": "safety range relative to halothane", "setting": "experimental animals [7]; other reports", "result": "about 1.88 times"}]}
